# Source: PMC12036814 (Angewandte Chemie (International Ed. in English), 2025)
# pKd: −log10 of the molar value.
# Assays:
# SCARB1 = molecular target: T1, SCARB1 (Homo sapiens, UniProt Q8WTV0); assay: Microscale thermophoresis (MST) binding
# T1 construct: purchased Hölzel Biotech SC1-H82E5
# T1 sequence (Q8WTV0 1-552): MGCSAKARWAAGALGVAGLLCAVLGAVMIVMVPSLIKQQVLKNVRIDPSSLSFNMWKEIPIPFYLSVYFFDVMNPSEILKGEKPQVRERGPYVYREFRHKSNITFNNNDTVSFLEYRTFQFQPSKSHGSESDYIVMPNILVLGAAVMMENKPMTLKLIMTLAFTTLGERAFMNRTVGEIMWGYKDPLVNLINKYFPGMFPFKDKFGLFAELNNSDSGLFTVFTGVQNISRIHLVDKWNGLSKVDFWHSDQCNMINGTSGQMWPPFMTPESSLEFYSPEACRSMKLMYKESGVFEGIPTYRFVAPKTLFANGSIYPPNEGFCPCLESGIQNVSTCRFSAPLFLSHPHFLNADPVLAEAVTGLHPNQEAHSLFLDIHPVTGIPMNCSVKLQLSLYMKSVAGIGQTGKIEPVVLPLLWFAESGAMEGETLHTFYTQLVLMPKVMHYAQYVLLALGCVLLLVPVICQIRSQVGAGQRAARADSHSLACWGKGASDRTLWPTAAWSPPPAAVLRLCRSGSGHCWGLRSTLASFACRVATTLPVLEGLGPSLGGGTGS
# Method: reaction was terminated by addition of 800 μL EtOAc+0.5% AcOH, 300 μL H2O and 100 μL internal standard (13,14-dihydro-15-ketoprostaglandin -d4, 300 pmol/sample, Cayman Chemical, Ann Arbor, USA, Cat# 10010606). Of the organic phase 600 μL was transferred into a fresh Eppendorf tube and the solvent removed in a SpeedVac. The residue was dissolved in 100 μL acetonitrile/ H2O (1:1) and measured with LC-MS/MS. Gradient: Solvent A = H2O + 0.1% formic acid, solvent B = acetonitrile + 0.5% formic acid, flow rate = 0 .4 mL/min, run length 6 min, gradient = 0 min 30% B, 1 min 30% B, 2 min 31.5% B, 2.1 min 95% B, 4 min 95% B, 4.1 min 30% B, 6 min 30% B. MS settings: Capillary = 3.0 kV, sampling cone = […], extraction cone […], source temperature = 100 °C, desolvat ion temperature = 350 °C, cone gas flow = 50.0 L/h, desolvation gas flow = 650.0 L/h, scan time = 0.250 s, inter-scan time = 0.020 s, mass range = 100 -800 Da. Masses of 15 -ketoprostaglandin (349.2 Da, collision energy = 21.0 eV), 13,14 -dihydro-15-ketoprostaglandin (351.2 Da, collision energy = 18.0 eV) and 13,14-dihydro-15-ketoprostaglandin (355.2 Da, collision energy = 10.0 eV) were set for MRM. The areas under the curve (AUC) were used to quantify 15 -keto-PGE2 and 13,14 -dihydro-15-keto-PGE2 levels by determining peak areas in relation to internal standard […]. The experiment was […]
# Microscale thermophoresis (MST) was performed as follows: Monolith His -Tag Labeling Kit RED -tris-NTA 2nd Generation (NanoTemper Technologies, Munich, Germany, Cat# MO -L018) was used for KD determination as recommended by the purchaser. Briefly, SCARB1 ( Hölzel Biotech, Cologne, Germany, Cat# SC1-H82E5) concentration (50 nM) was adjusted in assay buffer and labelled by the RED -tris-NTA dye (100 nM). This mixture was added to compound dilution series (c = 1 mM to 30 nM) and measured using Monolith NT.115 (NanoTemper Technologies, Munich, Germany ). The experiment was performed once and analysed with the MO Affinity Analysis software (NanoTemper).
# NUDT1 target validation efforts:
# Recombinant NUDT1 expression & purification […]
# AIFM1 = molecular target: T2, AIFM1 (Homo sapiens, UniProt O95831); assay: Gel-based labelling of recombinant AIFM1 spiked into HEK-293 lysate; format: binding; conditions: 5 μM probe, AIFM1 spiked in HEK-293 lysate
# T2 construct: made in house; host or cells: E. coli Rosetta2
# T2 sequence (O95831 102-613): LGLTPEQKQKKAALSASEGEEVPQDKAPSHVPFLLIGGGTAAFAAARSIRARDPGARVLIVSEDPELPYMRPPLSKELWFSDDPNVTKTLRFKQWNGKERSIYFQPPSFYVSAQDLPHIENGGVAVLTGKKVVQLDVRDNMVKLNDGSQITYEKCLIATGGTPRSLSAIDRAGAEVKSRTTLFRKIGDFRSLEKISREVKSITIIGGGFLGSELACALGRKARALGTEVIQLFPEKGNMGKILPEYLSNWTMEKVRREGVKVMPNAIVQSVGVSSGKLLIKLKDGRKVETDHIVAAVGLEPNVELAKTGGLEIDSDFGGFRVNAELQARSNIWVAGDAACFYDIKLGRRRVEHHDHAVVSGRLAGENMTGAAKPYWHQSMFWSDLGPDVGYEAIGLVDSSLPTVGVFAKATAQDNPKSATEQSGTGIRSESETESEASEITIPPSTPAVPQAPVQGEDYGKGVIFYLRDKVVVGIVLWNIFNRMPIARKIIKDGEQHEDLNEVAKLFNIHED
# Method: AIFM1 expression & purification
# Recombinant AIFM1 was expressed in a Rosetta2 E. coli strain. Bacterial growth was conducted in LB media supplemented with riboflavin and FAD shaking at 37°C and 180 rpm. Expression was induced with 1.0 mM IPTG and incubated for further 16 h before harvesting. Cells were harvested on ice in PBS and cell pellets stored at -20°C. Cells were lysed by French press and the 6xHis-tagged constructs were purified by Immobilized Metal Affinity Chromatography using Ni Sepharose (6 Fast Flow, GE). The centrifugation-cleared bacterial lysate was bound to beads in binding buffer (200 mM NaCl, 20 mM Tris/Cl pH = 7.4). […]
# For gel-based fluorescence labelling of recombinant AIFM1, 1.7 µM recombinant protein was spiked - in to PBS or PBS -diluted HEK293 cell lysate ( 100 µg per reaction sample). […]
# Click Master-mix (8 µL, 100 µM TAMRA-azide, Baseclick, Neuried, Germany, Cat# BCFA-008-10, 500 µM BTTAA ligand, Jena Bioscience, Jena, Germany, CLK -067, 1 mM CuSO4) was added and the CuAAC reaction started by addition of 2 µL of aq. sodium ascorbate (c end= 2 mM). […] Fluorescence scanning was performed using a Las-3000 fluorescence darkbox (Fujifilm, Minato, Japan) with a Fujinon VRF 43LMD Lens, 605DF40 filter and 520 nm EPI excitation wavelength and loading controls were developed with Coomassie stain afterwards. […]
# HEK‐293 cells = assay: Whole proteome analysis (LC-MS/MS, LFQ) of treated HEK-293 cells; conditions: 1 µM, 24 h, versus vehicle
"pKd (SCARB1; acquisition software MO.Control, read-out: binding affinity (Kd))",binding to SCARB1 (SCARB1; aggregation/precipitation at high compound concentrations),SMILES,gel-based labelling of recombinant AIFM1 by probe (AIFM1),pattern of downregulated proteins and affected pathways (HEK‐293 cells)
3.40,weak binding,C#CCCC1(CCN2CCN(c3cc4c(cc3F)c(=O)c(C(=O)O)cn4C3CC3)CC2)N=N1 [Cipro P1],strong fluorescent band corresponding to the molecular weight of AIFM1,
,,Cc1ccccc1CN1C(=O)C2=C(CCN(Cc3ccccc3)C2)N2CCN=C12 [ONC201],,strikingly similar to Ciprofloxacin treated cells
